# What was measured:
# bronchial tree = experiment: Bronchosecretogogic activity: sodium fluoresceine method in the rat (Mawatari); assay type: in vivo; conditions: 500 mg/kg i.p.
# Method: The bronchosecretogogic activity of compound (2), i.e. 2-methoxyphenyl N-[2-(2-thenoylthio)propionyl]aminoacetate, was tested according to the method of the sodium fluoresceine in the rat, as described by Mawatari (Experimental Studies on the expectorant action of several drugs, Kagoshima Daigaku Igaku Zasshi 27, 561 (1976)), in comparison with S-carboxymethyl-cysteine (CMC) and N-(2-mercaptopropionyl)glycine (MPG).
# Removal of the sodium fluoresceine from the bronchial
# tree (percentage increase versus the controls).
# [1] = Acute toxicity, LD50 by the Weil method, intraperitoneal administration in the mouse; conditions: in vivo, ip, N = 4 K = 4, confidential limits given
# From the text: LD50 of the compounds of formula (I), evaluated by the Weil method ("Tables for convenient calculation of median effective dose (LD50 or ED50) and instructions in their use", Biometrics, 249-253, 1952), by intraperitoneal administration in the mouse.
# LD50 and confidential limits, mg/kg i.p., of the
# compounds of formula I. Weil method, N = 4 K = 4
# bronchial secretion = experiment: Expectorating activity: amount of bronchial secretion in rabbits (method of Perry et al.); assay type: in vivo, rabbit; conditions: male rabbits, 20 to 40 mg
# Method: The experimentation was carried out on male rabbits, weighting 2-3 kg, narcotized with ethyl urethane, according to the method described by Perry et al. (J. Pharm. Exp. Ther. 73, 65 (1941)). Each compound of formula (I) was administered to 5 rabbits in doses ranging from 20 to 40 mg, 1 hour after the incannulation. The control group (8 rabbits) was given only water. The amount of secretion was determined 1, 2 and 4 hours after the administration.
# Effects of compounds of formula (I) on the bronchial secretion
# Percentage variations (± standard error) of the
# bronchial secretion, in comparison with the
# basic values, in the following times after the […]
# cough = experiment: Antitussive activity: cough induced by citric acid aerosol in Guinea pigs; assay type: in vivo
# Method: This activity was tested on Guinea pigs, in which cough was induced by citric acid aerosol, in comparison with codeine. Compound (2) was administered per os and intraperiotoneally.
# Antitussive activity. Cough induced in Guinea pigs
# esterase = experiment: In vitro enzymatic hydrolysis of compound (2); assay type: in vitro ADME
# Method: "In vitro" and "in vivo" tests were carried out.
# [2] = In vivo pharmacokinetics in the rat
# From the text: After administration of equimolecular doses of N-[2-(2-thenoylthio)propionyl]glycine and of the corresponding 2-methoxyphenyl ester (compound (2)), higher lung concentrations of N-(2-mercaptopropionyl)glycine and thiophene-2-carboxylic acid are found in the case of compound (2) administration.
# [3] = equimolecular doses, versus N-[2-(2-thenoylthio)propionyl]glycine
Compound,LD50 [1] [mg/kg],"Percentage variations (± standard error) of the bronchial secretion, in comparison with the basic values (bronchial secretion; 1h after the administration)","Percentage variations (± standard error) of the bronchial secretion, in comparison with the basic values (bronchial secretion; 2h after the administration)","Percentage variations (± standard error) of the bronchial secretion, in comparison with the basic values (bronchial secretion; 4h after the administration)",further results
"N[C@@H](CSCC(=O)O)C(=O)O [CMC, S-carboxymethyl-cysteine, reference compound]",,,,,Removal of the sodium fluoresceine from the bronchial tree (percentage increase versus the controls) (bronchial tree): 33.4%
"COc1ccccc1OC(=O)C(C)NC(C)=O (stereo not drawn) [(3), 2-methoxyphenyl ester of N-acetylalanine]",1150,"+0,8 ± 0,04%","+1,2 ± 0,04%","+2,7 ± 0,08%",
"CC(S)C(=O)NCC(=O)O (stereo not drawn) [MPG, N-(2-mercaptopropionyl)glycine, reference compound]",,,,,Removal of the sodium fluoresceine from the bronchial tree (percentage increase versus the controls) (bronchial tree): 21.9%
"COc1ccccc1OC(=O)C(CSCC(=O)O)NC(=O)C(C)SC(=O)c1cccs1 (stereo not drawn) [(10), 2-methoxyphenyl ester of N-[2-(2-thenoylthio)propionyl]-S-carboxymehtylcysteine]",1340,"+0,8 ± 0,02%","+1,3 ± 0,04%","+2,1 ± 0,03%",
"COc1ccccc1OC(=O)CNC(C)=O [(1), 2-methoxyphenyl ester of N-acetlyglycine]",1010,"+1,3 ± 0,02%","-1,4 ± 0,03%","+2,3 ± 0,07%",
"COc1ccccc1OC(=O)C(CS)NC(=O)C(C)SC(=O)c1cccs1 (stereo not drawn) [(8), 2-methoxyphenyl ester of N-[2-(2-thenoylthio)propionyl]cysteine]",980,"+1,8 ± 0,04%","+1,7 ± 0,09%","+2,7 ± 0,05%",
"COc1ccccc1OC(=O)C(CSCC(=O)O)NC(C)=O (stereo not drawn) [(7), 2-methoxyphenyl ester of N-acetyl-S-carboxymethylcysteine]",1250,"+0,5 ± 0,03%","+0,7 ± 0,07%","+1,9 ± 0,09%",
"COc1ccccc1OC(=O)CNC(=O)C(C)SC(=O)c1cccs1 (stereo not drawn) [Compound (2), 2-methoxyphenyl N-[2-(2-thenoylthio)propionyl]aminoacetate]",1240,"+0,3 ± 0,01%","+0,7 ± 0,03%","+1,4 ± 0,05%","Removal of the sodium fluoresceine from the bronchial tree (percentage increase versus the controls) (bronchial tree): 123.5%; bronchosecretogogic activity, comparison with CMC and MPG (bronchial tree): much higher than CMC and MPG; % inhibition of the cough (cough; 100 mg/kg i.p.): 95.8%; % inhibition of the cough (cough; 500 mg/kg per os): 82.3%; enzymatic hydrolysis products (esterase): enzymetically hydrolized giving N-(2-mercaptopropionyl)glycine, thiophene-2-carboxylic acid and guaiacol; tissue with highest esterase activity (esterase): highest esterase activity is showed by the lung; pulmonary tropism [2]: high pulmonary tropism; lung concentrations of N-(2-mercaptopropionyl)glycine [2, 3]: higher; lung concentrations of thiophene-2-carboxylic acid [2, 3]: higher; absorption ([2]; oral administration): mostly absorbed as such after oral administration"
"COc1ccccc1OC(=O)C(CSC(C)=O)NC(C)=O (stereo not drawn) [(6), 2-methoxyphenyl ester of N,S-diacetylcysteine]",1580,"+0,4 ± 0,05%","+2,1 ± 0,05%","+1,9 ± 0,04%",
"COc1ccccc1OC(=O)C(CSC(C)=O)NC(=O)C(C)SC(=O)c1cccs1 (stereo not drawn) [(9), 2-methoxyphenyl ester of N-[2-(2-thenoylthio)propionyl]-S-acetylcysteine]",1230,"+1,9 ± 0,03%","+1,5 ± 0,04%","+2,4 ± 0,04%",
"COc1ccc2c3c1O[C@H]1[C@@H](O)C=C[C@H]4[C@@H](C2)N(C)CC[C@@]341 [codeine, reference compound]",,,,,% inhibition of the cough (cough; 12.5 mg/kg i.p.): 90.2%; % inhibition of the cough (cough; 25 mg/kg per os): 75.6%
"COc1ccccc1OC(=O)C(CS)NC(C)=O (stereo not drawn) [(5), 2-methoxyphenyl ester of N-acetylcysteine]",1270,"+0,9 ± 0,05%","+2,1 ± 0,01%","+3,8 ± 0,09%",
"COc1ccccc1OC(=O)C(C)NC(=O)C(C)SC(=O)c1cccs1 (stereo not drawn) [(4), 2-methoxyphenyl ester of N-[2-(2-thenoylthio)propionyl]alanine]",960,"+1,5 ± 0,05%","+1,9 ± 0,08%","+2,5 ± 0,09%",

# From patent US4405638A, “2-Methoxyphenyl esters of N-substituted amino acids, a process for their preparation and pharmaceutical compositions containing them” (Sigma-Tau Industrie Farmaceutiche Riunite S.p.A, priority 1981, dated 1983)
